# Where a SMILES comes first, the peptide text is derived from it. Bridges are numbered along the chain shown (N, C = ends). [ ]: non-standard residue; d: D form. Phe(4-NH2) = Nc1ccc(C[C@H](N)C(=O)O)cc1; Phe(4-F) = N[C@@H](Cc1ccc(F)cc1)C(=O)O; 1Nal = N[C@@H](Cc1cccc2ccccc12)C(=O)O; NMeA = CN[C@@H](C)C(=O)O; Nle = CCCC[C@H](N)C(=O)O
# Experiments:
# [1] = test system: guinea pig tracheal smooth muscle; assay: Tracheal relaxant activity of VIP analogs on isolated guinea pig tracheal rings; type: cell-based; details: cumulative concentration response, relaxation as % of maximum response to VIP (10^-6 M=100%), three tissues pooled, linear regression
# In short: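 Male guinea pig tracheal rings under 1.5 g resting tension in Krebs at 37° C, 95% O2/5% CO2, isometric tension. Cumulative concentration-response curves; relaxation as % of response to 10^-6 M VIP added at end; three tissues pooled, EC50 by linear regression.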
# guinea pigs = assay: In vivo bronchodilator activity by tracheal instillation against histamine challenge; design: species or system guinea pig; details: anesthetized male guinea pigs, inhibition of histamine (i.v.)-induced rise in tracheal pressure
# In short: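 Urethane-anaesthetised male Hartley guinea pigs (400-600 g) received compound in water by intratracheal instillation, then were paralysed, ventilated and challenged with histamine […] i.v. Tracheal pressure change gave % inhibition (≥3 animals/group); ED50 from log dose-response; duration as time until inhibition fell to 40%.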
compound,measurement,setting,value
"CCCC[C@H](NC(=O)[C@H](CCC(N)=O)NC(=O)[C@H](CCCCN)NC(=O)[C@H](CCCNC(=N)N)NC(=O)[C@H](CC(C)C)NC(=O)[C@H](CCCCN)NC(=O)[C@@H](NC(=O)[C@H](Cc1ccc(O)cc1)NC(=O)[C@H](CC(N)=O)NC(=O)[C@H](CCC(=O)O)NC(=O)[C@@H](NC(=O)[C@H](Cc1ccccc1)NC(=O)[C@@H](NC(=O)[C@H](C)NC(=O)[C@H](CC(=O)O)NC(=O)[C@H](CO)NC(=O)[C@H](C)N(C)C(C)=O)C(C)C)[C@@H](C)O)[C@@H](C)O)C(=O)N[C@@H](C)C(=O)N[C@@H](C)C(=O)N[C@@H](CCCCN)C(=O)N[C@H]1CCCCNC(=O)C[C@@H](C(=O)N[C@@H](CC(C)C)C(=O)N[C@@H](CCCCN)C(=O)N[C@@H](CCCCN)C(N)=O)NC(=O)[C@H](CC(N)=O)NC(=O)[C@H](CC(C)C)NC(=O)[C@H](Cc2ccc(O)cc2)NC1=O [SEQ ID NO:44, Ac-[N-Me-Ala^1,Glu^8,Lys^12,Nle^17,Ala^19,Asp^25,Leu^26,Lys^27,28]-VIP cyclo (Lys^21 →Asp^25)] (Ac-[NMeA]SDAVFTENYTKLRKQ[Nle]AAKKYLNDLKK-NH2; lactam 21-25)",EC50,[1],0.36 nM
same,"Bronchodilator activity of VIP analogs in guinea pigs, ED50",guinea pigs,0.097 μg
"CCCC[C@H](NC(=O)[C@H](CCC(N)=O)NC(=O)[C@H](CCCCN)NC(=O)[C@H](CCCNC(=N)N)NC(=O)[C@H](CC(C)C)NC(=O)[C@H](CCCCN)NC(=O)[C@@H](NC(=O)[C@H](Cc1ccc(O)cc1)NC(=O)[C@H](CC(N)=O)NC(=O)[C@H](CCC(=O)O)NC(=O)[C@@H](NC(=O)[C@H](Cc1ccc(F)cc1)NC(=O)[C@@H](NC(=O)[C@H](C)NC(=O)[C@H](CC(=O)O)NC(=O)[C@H](CO)NC(=O)[C@H](Cc1c[nH]cn1)NC(C)=O)C(C)C)[C@@H](C)O)[C@@H](C)O)C(=O)N[C@@H](C)C(=O)N[C@@H](C)C(=O)N[C@@H](CCCCN)C(=O)N[C@H]1CCCCNC(=O)C[C@@H](C(=O)N[C@@H](CC(C)C)C(=O)N[C@@H](CCCCN)C(=O)N[C@@H](CCCCN)C(N)=O)NC(=O)[C@H](CC(N)=O)NC(=O)[C@H](CC(C)C)NC(=O)[C@H](Cc2ccc(O)cc2)NC1=O [SEQ ID NO:45, Ac-[p-F-Phe^6,Glu^8,Lys^12,Nle^17,Ala^19,Asp^25,Leu^26,Lys^27,28]-VIP cyclo (Lys^21 →Asp^25)] (Ac-HSDAV[Phe(4-F)]TENYTKLRKQ[Nle]AAKKYLNDLKK-NH2; lactam 21-25)",EC50,[1],0.47 nM
same,"Bronchodilator activity of VIP analogs in guinea pigs, ED50",guinea pigs,0.026 μg
"CCCC[C@H](NC(=O)[C@H](CCC(N)=O)NC(=O)[C@H](CCCCN)NC(=O)[C@H](CCCNC(=N)N)NC(=O)[C@H](CC(C)C)NC(=O)[C@H](CCCCN)NC(=O)[C@@H](NC(=O)[C@H](Cc1ccc(O)cc1)NC(=O)[C@H](CC(N)=O)NC(=O)[C@H](CCC(=O)O)NC(=O)[C@@H](NC(=O)[C@H](Cc1cccc2ccccc12)NC(=O)[C@@H](NC(=O)[C@H](C)NC(=O)[C@H](CC(=O)O)NC(=O)[C@H](CO)NC(=O)[C@H](Cc1c[nH]cn1)NC(C)=O)C(C)C)[C@@H](C)O)[C@@H](C)O)C(=O)N[C@@H](C)C(=O)N[C@@H](C)C(=O)N[C@@H](CCCCN)C(=O)N[C@H]1CCCCNC(=O)C[C@@H](C(=O)N[C@@H](CC(C)C)C(=O)N[C@@H](CCCCN)C(=O)N[C@@H](CCCCN)C(N)=O)NC(=O)[C@H](CC(N)=O)NC(=O)[C@H](CC(C)C)NC(=O)[C@H](Cc2ccc(O)cc2)NC1=O [SEQ ID NO:46, Ac-[1-Nal^6,Glu^8,Lys^12,Nle^17,Ala^19,Asp^25,Leu^26,Lys^27,28]-VIP cyclo (Lys^21 →Asp^25)] (Ac-HSDAV[1Nal]TENYTKLRKQ[Nle]AAKKYLNDLKK-NH2; lactam 21-25)",EC50,[1],0.26 nM
same,"Bronchodilator activity of VIP analogs in guinea pigs, ED50",guinea pigs,0.036 μg
"CCCC[C@H](NC(=O)[C@H](CCC(N)=O)NC(=O)[C@H](CCCCN)NC(=O)[C@H](CCCNC(=N)N)NC(=O)[C@H](CC(C)C)NC(=O)[C@H](CCCCN)NC(=O)[C@@H](NC(=O)[C@H](Cc1ccc(N)cc1)NC(=O)[C@H](CC(N)=O)NC(=O)[C@H](CCC(=O)O)NC(=O)[C@@H](NC(=O)[C@H](Cc1ccccc1)NC(=O)[C@@H](NC(=O)[C@H](C)NC(=O)[C@H](CC(=O)O)NC(=O)[C@H](CO)NC(=O)[C@H](Cc1c[nH]cn1)NC(C)=O)C(C)C)[C@@H](C)O)[C@@H](C)O)C(=O)N[C@@H](C)C(=O)N[C@@H](C)C(=O)N[C@@H](CCCCN)C(=O)N[C@H]1CCCCNC(=O)C[C@@H](C(=O)N[C@@H](CC(C)C)C(=O)N[C@@H](CCCCN)C(=O)N[C@@H](CCCCN)C(N)=O)NC(=O)[C@H](CC(N)=O)NC(=O)[C@H](CC(C)C)NC(=O)[C@H](Cc2ccc(O)cc2)NC1=O [SEQ ID NO:47, Ac-[Glu^8,p-NH2 -Phe^10,Lys^12,Nle^17,Ala^19,Asp^25,Leu^26,Lys^27,28]-VIP cyclo (Lys^21 →Asp^25)] (Ac-HSDAVFTEN[Phe(4-NH2)]TKLRKQ[Nle]AAKKYLNDLKK-NH2; lactam 21-25)",EC50,[1],0.32 nM
same,"Bronchodilator activity of VIP analogs in guinea pigs, ED50",guinea pigs,0.075 μg
"CCCC[C@H](NC(=O)[C@H](CCC(N)=O)NC(=O)[C@H](CCCCN)NC(=O)[C@H](CCCNC(=N)N)NC(=O)[C@H](CC(C)C)NC(=O)[C@H](CCCCN)NC(=O)[C@@H](NC(=O)[C@H](Cc1ccc(OC)cc1)NC(=O)[C@H](CC(N)=O)NC(=O)[C@H](CCC(=O)O)NC(=O)[C@@H](NC(=O)[C@H](Cc1ccccc1)NC(=O)[C@@H](NC(=O)[C@H](C)NC(=O)[C@H](CC(=O)O)NC(=O)[C@H](CO)NC(=O)[C@H](Cc1c[nH]cn1)NC(C)=O)C(C)C)[C@@H](C)O)[C@@H](C)O)C(=O)N[C@@H](C)C(=O)N[C@@H](C)C(=O)N[C@@H](CCCCN)C(=O)N[C@H]1CCCCNC(=O)C[C@@H](C(=O)N[C@@H](CC(C)C)C(=O)N[C@@H](CCCCN)C(=O)N[C@@H](CCCCN)C(N)=O)NC(=O)[C@H](CC(N)=O)NC(=O)[C@H](CC(C)C)NC(=O)[C@H](Cc2ccc(O)cc2)NC1=O [SEQ ID NO:48, Ac-[Glu^8,O-Me-Tyr^10,Lys^12,Nle^17,Ala^19,Asp^25,Leu^26, Lys^27,28]-VIP cyclo (Lys^21 →Asp^25)] (Ac-HSDAVFTENY(Me)TKLRKQ[Nle]AAKKYLNDLKK-NH2; lactam 21-25)",EC50,[1],0.41 nM
same,"Bronchodilator activity of VIP analogs in guinea pigs, ED50",guinea pigs,0.094 μg
"CCCC[C@H](NC(=O)[C@H](CCC(N)=O)NC(=O)[C@H](CCCCN)NC(=O)[C@H](CCCNC(=N)N)NC(=O)[C@H](CC(C)C)NC(=O)[C@H](CCCCN)NC(=O)[C@@H](NC(=O)[C@H](Cc1ccc(O)cc1)NC(=O)[C@H](CC(N)=O)NC(=O)[C@H](CC(=O)O)NC(=O)[C@@H](NC(=O)[C@H](Cc1ccc(F)cc1)NC(=O)[C@@H](NC(=O)[C@H](C)NC(=O)[C@H](CC(=O)O)NC(=O)[C@H](CO)NC(=O)[C@H](Cc1c[nH]cn1)NC(C)=O)C(C)C)[C@@H](C)O)[C@@H](C)O)C(=O)N[C@@H](C)C(=O)N[C@@H](C)C(=O)N[C@@H](CCCCN)C(=O)N[C@H]1CCCCNC(=O)C[C@@H](C(=O)N[C@H](C(=O)N[C@@H](CC(C)C)C(=O)N[C@H](C(N)=O)[C@@H](C)O)C(C)C)NC(=O)[C@H](CC(N)=O)NC(=O)[C@H](CC(C)C)NC(=O)[C@H](Cc2ccc(O)cc2)NC1=O [SEQ ID NO:49, Ac-[p-F-Phe^6,Lys^12,Nle^17,Ala^19,Asp^25,Val^26,Thr^28]-VIP cyclo (Lys^21 →Asp^25)] (Ac-HSDAV[Phe(4-F)]TDNYTKLRKQ[Nle]AAKKYLNDVLT-NH2; lactam 21-25)",EC50,[1],0.39 nM
same,"Bronchodilator activity of VIP analogs in guinea pigs, ED50",guinea pigs,0.26 μg
"CCCC[C@H](NC(=O)[C@H](CCC(N)=O)NC(=O)[C@H](CCCCN)NC(=O)[C@H](CCCNC(=N)N)NC(=O)[C@H](CC(C)C)NC(=O)[C@H](CCCCN)NC(=O)[C@@H](NC(=O)[C@H](Cc1ccc(O)cc1)NC(=O)[C@H](CC(N)=O)NC(=O)[C@H](CCC(=O)O)NC(=O)[C@@H](NC(=O)[C@H](Cc1ccccc1)NC(=O)[C@@H](NC(=O)[C@H](C)NC(=O)[C@H](CC(=O)O)NC(=O)[C@H](C)NC(=O)[C@H](Cc1c[nH]cn1)NC(C)=O)C(C)C)[C@@H](C)O)[C@@H](C)O)C(=O)N[C@@H](C)C(=O)N[C@@H](C)C(=O)N[C@@H](CCCCN)C(=O)N[C@H]1CCCCNC(=O)C[C@@H](C(=O)N[C@@H](CC(C)C)C(=O)N[C@@H](CCCCN)C(=O)N[C@@H](CCCCN)C(=O)NCC(=O)NCC(=O)N[C@H](C(N)=O)[C@@H](C)O)NC(=O)[C@H](CC(N)=O)NC(=O)[C@H](CC(C)C)NC(=O)[C@H](Cc2ccc(O)cc2)NC1=O [SEQ ID NO:51, Ac-[Ala^2,Glu^8,Lys^12,Nle^17,Ala^19,Asp^25,Leu^26,Lys^27,28,Gly^29,30,Thr^31]-VIP cyclo (Lys^21 →Asp^25)] (Ac-HADAVFTENYTKLRKQ[Nle]AAKKYLNDLKKGGT-NH2; lactam 21-25)",EC50,[1],0.92 nM
same,"Bronchodilator activity of VIP analogs in guinea pigs, ED50",guinea pigs,0.1 μg
"CCCC[C@H](NC(=O)[C@H](CCC(N)=O)NC(=O)[C@H](CCCCN)NC(=O)[C@H](CCCNC(=N)N)NC(=O)[C@H](CC(C)C)NC(=O)[C@H](CCCCN)NC(=O)[C@@H](NC(=O)[C@H](Cc1ccc(O)cc1)NC(=O)[C@H](CC(N)=O)NC(=O)[C@H](CCC(=O)O)NC(=O)[C@@H](NC(=O)[C@H](Cc1ccccc1)NC(=O)[C@@H](NC(=O)[C@H](C)NC(=O)[C@H](CC(=O)O)NC(=O)[C@H](CO)NC(=O)[C@H](Cc1c[nH]cn1)NC(C)=O)C(C)C)[C@@H](C)O)[C@@H](C)O)C(=O)N[C@@H](C)C(=O)N[C@@H](C)C(=O)N[C@@H](CCCCN)C(=O)N[C@H]1CCCCNC(=O)C[C@@H](C(=O)N[C@@H](CC(C)C)C(=O)N[C@@H](CCCCN)C(=O)N[C@@H](CCCCN)C(=O)NCC(=O)NCC(=O)N[C@H](C(N)=O)[C@@H](C)O)NC(=O)[C@H](CC(N)=O)NC(=O)[C@H](CC(C)C)NC(=O)[C@H](Cc2ccc(O)cc2)NC1=O [SEQ ID NO:52, Ac-[Glu^8,Lys^12,Nle^17,Ala^19,Asp^25,Leu^26,Lys^27,28,Gly^29,30,Thr^31]-VIP cyclo (Lys^21 →Asp^25)] (Ac-HSDAVFTENYTKLRKQ[Nle]AAKKYLNDLKKGGT-NH2; lactam 21-25)",EC50,[1],0.35 nM
same,"Bronchodilator activity of VIP analogs in guinea pigs, ED50",guinea pigs,0.1 μg

# Source: patent US5677419A, “Cyclic vasoactive peptide analogs” (Hoffmann-La Roche Inc., priority 1994, dated 1997)
